The test system of assay [1] is LoVo. Put plainly: Antiproliferative activity against human LoVo cells by WST-1 assay. The assay is classed as functional, cell-based. For orientation: Tetrazolium dyes change colour on reduction, which living cells bring about.
Assay [2] concerns the target Histone deacetylase. Put plainly: Inhibition of HDAC (unknown origin). The assay is classed as protein assay, Homo sapiens.

From ChEMBL document CHEMBL4368892, “Isatin and its derivatives: a survey of recent syntheses, reactions, and applications” (Medchemcomm, 2019) come the findings set out here.

What is called IC50 is the concentration at which inhibition is half-maximal. A low value points to inhibition by little substance.

Take `Cc1ccc2nc(SCC(=O)N/N=C3\C(=O)Nc4ccc([N+](=O)[O-])cc43)n(-c3ccccc3)c(=O)c2c1`: in assay [1], the concentration for half-maximal inhibition (IC50) fell in the range of 9.91 to 17.9 µM.

`Cc1ccc2nc(SCC(=O)N/N=C3\C(=O)Nc4ccc(F)cc43)n(-c3ccccc3)c(=O)c2c1` registered an IC50 in assay [1] of 9.91 to 17.9 µM.

Compound `O=C(CSc1nc2ccccc2c(=O)n1CCc1ccccc1)N/N=C1\C(=O)Nc2ccccc21` came in with an IC50 in assay [1] of 9.91 to 17.9 µM.

In assay [1], `Cc1ccc2nc(SCC(=O)N/N=C3\C(=O)Nc4ccc(Cl)cc43)n(-c3ccccc3)c(=O)c2c1` showed a concentration for half-maximal inhibition (IC50) of 9.91 to 17.9 µM.

On to `Cc1ccc2nc(SCC(=O)N/N=C3\C(=O)Nc4ccccc43)n(Cc3ccccc3)c(=O)c2c1`, for which, in assay [1], the IC50 lay within 9.91 to 17.9 µM.

`Cc1ccc2nc(SCC(=O)N/N=C3\C(=O)Nc4ccc(Cl)cc43)n(Cc3ccccc3)c(=O)c2c1` gave a half-maximal inhibitory concentration (IC50) in assay [1] of 9.91 to 17.9 µM.

In the case of `O=C(CSc1nc2ccccc2c(=O)n1CCc1ccccc1)N/N=C1\C(=O)Nc2ccc(Cl)cc21`, the IC50 in assay [1] was 9.91 to 17.9 µM.

Regarding `O=C(CSc1nc2ccccc2c(=O)n1CCc1ccccc1)N/N=C1\C(=O)Nc2ccc(F)cc21`, the IC50 in assay [1] lay within 9.91 to 17.9 µM.

On to `O=C(CNC(=S)N/N=C1\C(=O)Nc2ccc(Cl)cc21)NO`, for which the IC50 in assay [2] was 0.97 µM. That is a sub-micromolar value.

In assay [1], `Cc1ccc2nc(SCC(=O)N/N=C3\C(=O)Nc4ccccc43)n(-c3ccccc3)c(=O)c2c1` yielded an IC50 of 9.91 to 17.9 µM.

On to `Cc1ccc2nc(SCC(=O)N/N=C3\C(=O)Nc4ccc(F)cc43)n(Cc3ccccc3)c(=O)c2c1`, for which, in assay [1], the half-inhibitory concentration (IC50) was 9.91 to 17.9 µM.

`O=C(CSc1nc2ccccc2c(=O)n1-c1ccccc1)N/N=C1\C(=O)Nc2ccc([N+](=O)[O-])cc21`: the IC50 in assay [1] was in the range of 9.91 to 17.9 µM.

Regarding `Cc1ccc2nc(SCC(=O)N/N=C3\C(=O)Nc4ccc([N+](=O)[O-])cc43)n(Cc3ccccc3)c(=O)c2c1`, the half-inhibitory concentration (IC50) in assay [1] lay in the range of 9.91 to 17.9 µM.

In assay [1], `O=C(CSc1nc2ccccc2c(=O)n1Cc1ccccc1)N/N=C1\C(=O)Nc2ccc([N+](=O)[O-])cc21` had a half-maximal inhibitory concentration (IC50) of 9.91 to 17.9 µM.

Take `O=C(CSc1nc2ccccc2c(=O)n1-c1ccccc1)N/N=C1\C(=O)Nc2ccc(Cl)cc21`: the half-maximal inhibitory concentration (IC50) in assay [1] was 9.91 to 17.9 µM.
